Results: patent US20240327423A1, “A SERIES OF PYRROLE DERIVATIVES AND THEIR PREPARATION METHOD AND THERAPEUTIC USE” (SHENZHEN SUNGENING BIO-MEDICAL CO., LTD, priority 2020, published 2024)
In brackets after ≈: the same amount, converted by molar mass.

Tests used:
[1] = test system: Aspergillus fumigatus (ATCC MYA-4609/AF293/CBS 101355); assay: Measurement of minimum inhibitory concentration (MIC), AF293; type: cell-based; settings: CBS101355; Aspergillus fumigatus AF293, 35° C., 48 hours, RPMI1640; read-out: AF293: MIC
Method in brief: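 Broth microdilution in RPMI1640 buffered with 0.165M MOPS, pH 7.0, spore inoculum 0.2-2.5×10^4 spores/mL from SDA cultures. Twofold compound dilutions in DMSO, 1% of final volume. Incubated 35 °C for 48 h; growth scored visually with magnifier and OD530 read.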

[2] = test system: Aspergillus flavus (ATCC 204304); assay: Measurement of minimum inhibitory concentration (MIC), ATCC 204304; type: cell-based; settings: ATCC204304; Aspergillus flavus ATCC 204304, 35° C., 48 hours
Procedure: (§1) New streaks are made with glycerol stock solution of the strains of Aspergillus fumigatus (ATCC MYA-4609/AF 293/CBS 101355) on Sabouraud's dextrose agar (SDA), incubate at 35° C. and a humidity of 40-70% for 72 hours. Other strains are processed as the same as AF293.
(§2) RPMI1640: one packet of RPMI1640 powder is dissolved in 1 L purified water and mixed well, add 0.165M MOPS, adjust the pH to 7.0, sterilize by filtration with 0.22 um membrane, and store at 4° C. for no more than 3 months.
(§3) Physiological saline: weigh 9 g of sodium chloride powder and dissolve in 1 L of purified water, and mixed well. Sterilize at 121° C. for 30 min, store at room temperature (RT) for no more than 1 week.
(§4) Dissolve the test compound and stock solution of one control compound with DMSO and obtain solutions at a concentration of 12.8 mg/mL
(§5) The maximum concentration of each compound is 0.8 mg/mL (e.g., 150 μL of dimethyl sulfoxide+10 uL of 12.8 mg/mL compound/control). Column 1 is filled with 40 μL of compound and columns 2 to 11 with 20 μL of dimethyl sulfoxide. Transfer 20 μL of compound from column 1 to column 2 to dilute the concentration. Repeat the above steps up to column 11 to give 2× serial dilutions.
(§6) 2 μL of the above 2× serial dilutions are injected into each hole of the corresponding test plate using a multichannel pipette.
(§7) Drop 5 ml of saline on the Aspergillus fumigatus SDA plate. The spores were carefully wiped off from the surface of the plate with an L-shaped coating rod. Then the suspension is transferred into a sterile tube. After shaking, let the tube stand for 5 to 10 minutes. Count the number of spores in the upper suspension with a hemocytometer and check the purity. Adjust the inoculum concentration to 0.2-2.5×10^4 spores/mL.
(§8) Inject 198 μL of diluted inoculum into each holes of the corresponding test plate using a multichannel pipette.
(§9) Incubate at 35° C. for 48 hours.
(§10) To facilitate scoring of the presence or absence of growth on the wall, a magnifying glass is used. The tested 96-well microplates were photographed and the optical density at 530 nm is read with an enzyme marker (Tecan Spark).

[3] = test system: Aspergillus flavus (ATCC MYA-1004); assay: Measurement of minimum inhibitory concentration (MIC), ATCC MYA-1004; type: cell-based; settings: Aspergillus flavus ATCC MYA-1004, 35° C., 48 hours
Procedure: as §1, §2, §3, §4, §5, §6, §7, §8, §9, §10

[4] = test system: Aspergillus fumigatus ATCCMYA-4690 (AF293); assay: Survival rate experiment I of mouse bloodstream infection model with Aspergillus fumigatus; type: in vivo; settings: immunosuppressed male CD-1 mouse; for day 7 survival rate: 3 mg/kg orally twice daily for 6 days, started 24 hours after infection; for survival time of mouses: 3 mg/kg orally twice daily
Procedure: Test Case 5: Survival Rate Experiment I of Mouse Bloodstream Infection Model with Aspergillus fumigatus • Experimental animals: male CD-1 mouse, 6-8 weeks old, 10 animals per group. • Induction of immunosuppression: the day of infection is defined as day 0, and mouses are injected intraperitoneally with corresponding doses of cyclophosphamide on day −4 (150 mg/kg), day −1 (100 mg/kg) and day 2 (100 mg/kg). • Microbial pathogen: Aspergillus fumigatus ATCCMYA-4690 (AF293). • Collection conditions of inoculum: culture on SDA culture plates, incubate at 25° C. for at least 7 days, collect with PBS+0.1% Tween 20, and count microscopically; • Inoculation level, route and volume: 3.60E+05 CFU/mouse, tail vein injection, injection volume of 100 μL/mouse; • Treatment: Treatment is started 24 hours after infection, and test compounds are dissolved in PEG400 (0.3 mg/mL), and used for administration orally to mouses at 3 mg/kg, twice daily for 6 days. The administrated mouses are observed for 8 hours.

[5] = test system: Aspergillus fumigatus ATCCMYA-4690 (AF293); assay: Survival rate experiment II of mouse bloodstream infection model with Aspergillus fumigatus; type: in vivo; settings: for day 7 survival rate: 3 mg/kg (bid) orally for 6 days, started 24 hours after infection; for survival time of mouses: oral, bid
Procedure: Test Case 6: Survival Rate Experiment II of Mouse Bloodstream Infection Model with Aspergillus fumigatus • Animal for experiment: male CD-1 mouse, 6-8 weeks old, 10 animals per group. • Induction of immunosuppression: the day of infection is defined as day 0, and mouses are injected intraperitoneally with corresponding doses of cyclophosphamide on day −4 (150 mg/kg), day −1 (100 mg/kg), and day 2 (100 mg/kg), respectively. • Microbial pathogen: Aspergillus fumigatus ATCCMYA-4690 (AF293). • Collection conditions of inoculum: culture on SDA culture plates, incubate at 25° C. for at least 7 days, collect with PBS+0.1% Tween 20, and count microscopically; • Inoculation level, route and volume: 3.90E+05 CFU/mouse, tail vein injection, injection volume of 100 μL/mouse; • Treatment: Treatment is started 24 hours after infection, and test compounds are dissolved in PEG400 (0.3 mg/mL), […] The administrated mouses are observed for 8 hours.

[6] = immunosuppressed male CD-1 mouse

| SMILES | MIC [1] [ng/mL] | MIC [2] [ng/mL] | MIC [3] [ng/mL] | day 7 survival rate [4] [%] | survival time of mouses [4] | day 7 survival rate [5, 6] [%] | survival rate ([5]; immunosuppressed male CD-1 mouse, 10 mg/kg (bid)) [%] | survival time of mouses [5, 6] | dose dependence of survival ([5]; three doses of 1 mg/kg, 3 mg/kg and 10 mg/kg) |
| --- | --- | --- | --- | --- | --- | --- | --- | --- | --- |
| Cc1cc(-c2ccccc2)c(C(=O)C(=O)Nc2cc(F)c3c(c2)OC[C@H]2CN(c4ncc(F)cn4)CCN32)n1C [Example 5] | 16 (≈ 29.4 nM) | 4 (≈ 7.35 nM) | 4 (≈ 7.35 nM) | 0 |  |  |  |  |  |
| Cc1cc(-c2ccccc2)c(C(=O)C(=O)Nc2ccc3c(c2)C[C@H]2CN(c4ncc(F)cn4)CCN32)n1C [Example 33, (S)-2-(1,5-dimethyl-3-phenyl-1H-pyrrol-2-yl)-N-(2-(5-fluoropyrimidin-2-yl)-1,2,3,4,10,10a-hexahydropyrazino[1,2-a]indol-8-yl)-2-oxoacetamide] | 4 (≈ 7.83 nM) | 8 (≈ 15.7 nM) | 8 (≈ 15.7 nM) | 40 | prolong the survival time | 30 | 80 | prolong the survival time | dose-dependent relationship |
| Cc1cc(-c2ccccc2)c(C(=O)C(=O)Nc2ccc(N3CCN(c4ncc(F)cn4)CC3)cc2)n1C [Example F901318, reference compound] | 30 (≈ 60.2 nM) | 4 (≈ 8.02 nM) | 4 (≈ 8.02 nM) | 0 | prolong the survival time | 0 |  | prolong the survival time |  |
